This is an account of results in patent US20170072012A1, “USE OF GSMTX4 TO REDUCE ISCHEMIA REPERFUSION INJURY” (priority 2014, published 2017).

Where two headings read alike, the source gives them in different places. Where a SMILES comes first, the peptide text is derived from it. Bridges are numbered along the chain shown (N, C = ends). [ ]: non-standard residue; d: D form.

The test system of this series is ischemic reperfusion injury in mouse heart. The class given is in vivo, C57B1/6J mice. The conditions noted are these: for myocardial infarction (infarct area / AAR): 4 h reperfusion, vehicle 16.5±1.2%. Here is the method:
Acute GsMTx4-D treatment: All animal protocols in this study were approved by the Institutional Animal Care and Use Committee of the University at Buffalo-State University of New York. C57B1/6J mice were anesthetized with 80 mg/kg of sodium pentobarbital (Sigma, St. Louis, Mo.) via intraperitoneal injection (IP), intubated and ventilated with a respirator (Harvard apparatus, Holliston, Mass., USA) 17. Upon absence of a pedal reflex, surgery was performed under a stereomicroscope. Core body temperature was maintained at 37° C. with a heating pad. After a left lateral thoracotomy, the left anterior descending coronary artery (LAD) was occluded just underneath the left atrium for 20 min with an 8-0 nylon suture. […] A small piece of gauze was used to prevent arterial injury. After 20 min the ligature was removed and the tissue was reperfused for up to 4 h before euthanizing. Three different doses of GsMTx4-D (0.1, 1, 10 mg/kg), verapamil (0.4 mg/kg) or vehicle (saline 50 μL) were administered via tail vein injection 5 min before reperfusion (during induced ischemia). ECGs confirmed the hallmark ischemic ST segment elevation during coronary occlusion (AD Instruments, Colorado Springs, CO, USA). Each group included 5 independent experiments. At the conclusion of the study, mice were euthanized by IP injection of 270 mg/kg pentobarbital. GsMTx4-D pretreatment: To evaluate the effect of GsMTx4-D pretreatment, GsMTx4-D (50 mg/kg) or vehicle (saline 50 μL) were administered via IP injection once daily for 2 days prior to surgery. Ischemia was then elicited with the same 20 min coronary occlusion followed by 24 h reperfusion. Following reperfusion, the chest was closed in layers. A drop of lidocaine was put on the suture site and the mouse was slowly weaned off the ventilator when they resumed spontaneous breathing. The mouse was returned to its cage and kept warm and medicated for pain (buprenorphine). Each group included 5 independent experiments.
To measure infarct size, hearts were harvested and excised for dual staining at the conclusion of reperfusion. The non-necrotic tissue in the ischemic region was stained red with 2,3,5- triphenyltetrazolium (TTC) and non-ischemic regions were stained blue with Evans blue. The hearts were fixed and sectioned into 1 mm slices, photographed with a Lexica MZ95 microscope and analyzed with NIH ImageJ software (http://imagej.nih.gov/ij/) 19. The infarct size was calculated as the ratio of the percentage of myocardial necrosis to the ischemic Area At Risk (AAR).
To test whether GsMTx4-D protected the heart against reperfusion injury, we first tested three different doses of the peptide. The positive control was verapamil, a voltage-gated calcium channel inhibitor with established cardioprotective effects on IRI. C57B1/6 mice were subjected to 20 min occlusion of the LAD followed by 4 hours of reperfusion. Three different concentrations of GsMTx4-D (0.1, 1 and 10 mg/kg), verapamil (0.4 mg/kg), or vehicle (saline) were administered through tail vein injection 5 min before reperfusion. […] At the conclusion of reperfusion, the hearts were stained with TTC and Evans Blue (FIG. 2A). […] The verapamil group also had lower infarction size (14.0±0.4%), but the difference wasn't statistically significant. […] To evaluate whether pretreatment with GsMTx4-D could also protect the heart from I/R injury, GsMTx4-D (50 mg/kg) or vehicle (saline 50 μL) were administered daily via IP injection, for 2 days prior to I/R surgery. As before, ischemia was induced from 20 min LAD occlusion, but reperfusion was allowed to continue for 24 hrs. The chest was closed in layers, and animals were weaned off the ventilator when they resumed spontaneous breathing. […] The ratios of AAR to total myocardial area between the two groups were equal as determined by TTC and Evans Blue staining (FIG. 3A and B). […]

As to `CC(C)C[C@H]1NC(=O)[C@H](NC(=O)CN)CSSC[C@H]2NC(=O)[C@H]3CSSC[C@H](C(=O)N[C@H](CC(N)=O)C(=O)N[C@H](Cc4ccccc4)C(=O)N[C@H](CO)C(=O)N[C@H](Cc4ccccc4)C(N)=O)NC(=O)[C@@H](CC(C)C)NC(=O)[C@@H](CCCCN)NC(=O)[C@@H](Cc4ccccc4)NC(=O)[C@@H](CC(C)C)NC(=O)[C@@H](CCCCN)NC(=O)[C@@H](CO)NC(=O)[C@@H](CSSC[C@@H](NC(=O)[C@@H](CCCCN)NC(=O)[C@@H](Cc4c[nH]c5ccccc45)NC(=O)[C@@H](Cc4c[nH]c5ccccc45)NC(=O)[C@@H](Cc4ccccc4)NC(=O)[C@@H](CCC(=O)O)NC1=O)C(=O)N[C@H](CC(N)=O)C(=O)N1CCC[C@@H]1C(=O)N[C@H](CC(N)=O)C(=O)N[C@H](CC(=O)O)C(=O)N[C@H](CC(=O)O)C(=O)N[C@H](CCCCN)C(=O)N3)NC(=O)[C@@H](CCCCN)NC(=O)[C@@H](CC(C)C)NC(=O)[C@@H](CCCCN)NC(=O)[C@H]1CCCN1C(=O)[C@@H](CCCNC(=N)N)NC2=O` [GsMTx4-D] (H-G[dC][dL][dE][dF][dW][dW][dK][dC][dN][dP][dN][dD][dD][dK][dC][dC][dR][dP][dK][dL][dK][dC][dS][dK][dL][dF][dK][dL][dC][dN][dF][dS][dF]-NH2; disulfide 2-17, 9-23, 16-30 (inferred); N-terminus and C-terminus assumed), the “myocardial infarction (infarct area / AAR)” value runs as follows: (1.0 mg/kg tail vein 5 min before reperfusion) 9.9±1.3%; (10 mg/kg tail vein 5 min before reperfusion) 12.4±0.5%. The side-effects from pretreatment entry (50 mg/kg IP daily for 2 days) is recorded as “did not detect any side-effects”. Further, the “infarction size (infarct area / AAR)” value (50 mg/kg IP daily for 2 days prior to surgery, 24 h reperfusion, vehicle 16.8±1.1%) was found to be 10.5±0.7%. Also, the “death or morbidity in acute I/R treatment” value (0.1, 1 and 10 mg/kg tail vein injection) was “no death or morbidity observed”. For the same molecule, the “toxicity in the heart during these studies” value (acute IV and IP pretreatment I/R studies) was “no overt signs of toxicity”.
